What all share (test): Kinase profiling
What all share (type): biochemical

In one test the target is T1, IKKbeta (Homo sapiens, UniProt O14920).
T1 construct: purchased ProQinase (Freiburg, Germany)
T1 sequence (O14920 1-756): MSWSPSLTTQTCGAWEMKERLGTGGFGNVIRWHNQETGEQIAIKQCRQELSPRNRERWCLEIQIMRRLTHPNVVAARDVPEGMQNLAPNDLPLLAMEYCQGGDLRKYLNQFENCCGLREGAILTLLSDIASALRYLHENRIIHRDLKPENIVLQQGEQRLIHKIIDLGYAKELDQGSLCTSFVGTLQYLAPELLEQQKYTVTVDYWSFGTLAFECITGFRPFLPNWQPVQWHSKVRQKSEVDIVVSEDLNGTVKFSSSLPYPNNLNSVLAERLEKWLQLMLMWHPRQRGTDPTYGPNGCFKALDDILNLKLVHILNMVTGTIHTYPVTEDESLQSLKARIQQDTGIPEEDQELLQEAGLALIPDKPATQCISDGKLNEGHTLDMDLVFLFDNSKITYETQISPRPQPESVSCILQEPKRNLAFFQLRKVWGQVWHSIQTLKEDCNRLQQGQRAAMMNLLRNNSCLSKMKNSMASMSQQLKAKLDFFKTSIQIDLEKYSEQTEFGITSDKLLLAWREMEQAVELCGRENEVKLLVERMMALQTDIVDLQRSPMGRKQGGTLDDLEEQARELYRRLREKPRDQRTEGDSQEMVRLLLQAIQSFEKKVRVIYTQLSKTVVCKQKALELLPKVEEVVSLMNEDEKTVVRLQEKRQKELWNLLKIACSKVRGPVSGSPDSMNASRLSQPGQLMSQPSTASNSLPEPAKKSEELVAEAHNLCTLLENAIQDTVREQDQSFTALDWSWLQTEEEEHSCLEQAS
As to the method: (§1) The analysis was performed by ProQinase (Freiburg, Germany).

The target of another test is T2, ROCK2 (Homo sapiens, UniProt O75116).
T2 construct: purchased ProQinase (Freiburg, Germany)
The protocol: as §1

The target in the next test is T3, TTBK2 (Homo sapiens, UniProt Q6IQ55).
T3 construct: purchased ProQinase (Freiburg, Germany)
The protocol:
as §1

For another test, the target named is T4, IRAK1 (Homo sapiens, UniProt P51617).
T4 construct: purchased ProQinase (Freiburg, Germany)
As to the method: as §1

Another test deals with T5, SRMS (Homo sapiens, UniProt Q9H3Y6).
T5 construct: purchased ProQinase (Freiburg, Germany)
As to the method: as §1

For the next test, the target named is T6, MUSK (Homo sapiens, UniProt O15146).
T6 construct: purchased ProQinase (Freiburg, Germany)
T6 sequence (O15146 24-869): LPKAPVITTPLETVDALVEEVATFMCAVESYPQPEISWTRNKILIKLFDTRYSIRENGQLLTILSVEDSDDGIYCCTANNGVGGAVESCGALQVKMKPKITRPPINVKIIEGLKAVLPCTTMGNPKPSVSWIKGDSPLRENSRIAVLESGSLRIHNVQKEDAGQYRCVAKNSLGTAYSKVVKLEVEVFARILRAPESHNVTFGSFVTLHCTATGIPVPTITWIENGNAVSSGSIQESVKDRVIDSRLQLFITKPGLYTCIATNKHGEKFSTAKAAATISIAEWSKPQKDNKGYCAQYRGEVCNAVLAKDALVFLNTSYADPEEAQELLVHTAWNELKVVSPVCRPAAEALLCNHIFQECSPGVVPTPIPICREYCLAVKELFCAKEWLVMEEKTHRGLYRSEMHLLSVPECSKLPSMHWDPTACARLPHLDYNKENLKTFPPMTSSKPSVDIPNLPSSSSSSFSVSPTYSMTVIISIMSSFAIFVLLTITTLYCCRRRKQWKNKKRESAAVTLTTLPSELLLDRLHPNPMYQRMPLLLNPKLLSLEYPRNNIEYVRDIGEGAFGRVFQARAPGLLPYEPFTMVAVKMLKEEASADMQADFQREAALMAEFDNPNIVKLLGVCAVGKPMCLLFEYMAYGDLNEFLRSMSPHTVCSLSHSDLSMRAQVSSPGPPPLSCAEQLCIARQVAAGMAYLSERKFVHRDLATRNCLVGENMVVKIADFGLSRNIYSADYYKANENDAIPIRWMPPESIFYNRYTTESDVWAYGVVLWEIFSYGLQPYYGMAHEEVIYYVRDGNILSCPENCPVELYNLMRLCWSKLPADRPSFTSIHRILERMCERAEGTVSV
The protocol: as §1

The next test concerns the target T7, IRAK4 (Homo sapiens, UniProt Q9NWZ3).
T7 construct: purchased ProQinase (Freiburg, Germany)
T7 sequence (Q9NWZ3 1-460): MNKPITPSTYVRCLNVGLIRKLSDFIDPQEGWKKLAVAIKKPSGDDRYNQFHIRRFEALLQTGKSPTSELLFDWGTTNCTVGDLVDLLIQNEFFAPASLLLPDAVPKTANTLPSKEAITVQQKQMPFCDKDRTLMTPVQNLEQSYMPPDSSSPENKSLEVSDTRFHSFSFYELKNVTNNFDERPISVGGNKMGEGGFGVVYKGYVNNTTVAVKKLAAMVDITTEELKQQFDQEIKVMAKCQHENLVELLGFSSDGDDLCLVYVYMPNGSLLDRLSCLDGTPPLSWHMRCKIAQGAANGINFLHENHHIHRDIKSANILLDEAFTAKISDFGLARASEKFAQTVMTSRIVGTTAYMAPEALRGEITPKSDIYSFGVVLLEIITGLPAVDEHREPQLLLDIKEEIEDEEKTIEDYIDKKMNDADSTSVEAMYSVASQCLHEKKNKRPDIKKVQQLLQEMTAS
The protocol: as §1

A further test concerns the target T8, ABL1 (Homo sapiens, UniProt P00519).
T8 construct: purchased ProQinase (Freiburg, Germany)
The protocol: as §1

The target of a further test is T9, CDK7/CycH/MAT1 (Homo sapiens, UniProt P50613).
T9 construct: purchased ProQinase (Freiburg, Germany)
As to the method: as §1

Data on 2 molecules can be found in PMC9030254, “Target Hopping from Protein Kinases to PXR: Identification of Small-Molecule Protein Kinase Inhibitors as Selective Modulators of Pregnane X Receptor from TüKIC Library” (Cells, 2022).

SMILES strings stand for the structures.

T5 sequence (Q9H3Y6 whole entry): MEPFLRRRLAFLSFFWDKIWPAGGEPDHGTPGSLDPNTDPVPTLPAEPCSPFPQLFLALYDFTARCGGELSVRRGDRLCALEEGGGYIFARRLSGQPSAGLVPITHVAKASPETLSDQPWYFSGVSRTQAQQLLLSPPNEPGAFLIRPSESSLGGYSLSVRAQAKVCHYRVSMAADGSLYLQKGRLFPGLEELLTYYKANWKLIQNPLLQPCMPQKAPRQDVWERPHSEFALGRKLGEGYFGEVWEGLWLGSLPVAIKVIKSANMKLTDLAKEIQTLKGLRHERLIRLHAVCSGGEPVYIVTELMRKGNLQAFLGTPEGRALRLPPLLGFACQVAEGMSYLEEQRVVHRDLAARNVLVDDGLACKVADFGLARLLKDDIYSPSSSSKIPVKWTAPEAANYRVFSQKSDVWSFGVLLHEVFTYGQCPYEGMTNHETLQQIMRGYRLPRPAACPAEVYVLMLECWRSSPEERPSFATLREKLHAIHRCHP
T4 sequence (P51617 whole entry): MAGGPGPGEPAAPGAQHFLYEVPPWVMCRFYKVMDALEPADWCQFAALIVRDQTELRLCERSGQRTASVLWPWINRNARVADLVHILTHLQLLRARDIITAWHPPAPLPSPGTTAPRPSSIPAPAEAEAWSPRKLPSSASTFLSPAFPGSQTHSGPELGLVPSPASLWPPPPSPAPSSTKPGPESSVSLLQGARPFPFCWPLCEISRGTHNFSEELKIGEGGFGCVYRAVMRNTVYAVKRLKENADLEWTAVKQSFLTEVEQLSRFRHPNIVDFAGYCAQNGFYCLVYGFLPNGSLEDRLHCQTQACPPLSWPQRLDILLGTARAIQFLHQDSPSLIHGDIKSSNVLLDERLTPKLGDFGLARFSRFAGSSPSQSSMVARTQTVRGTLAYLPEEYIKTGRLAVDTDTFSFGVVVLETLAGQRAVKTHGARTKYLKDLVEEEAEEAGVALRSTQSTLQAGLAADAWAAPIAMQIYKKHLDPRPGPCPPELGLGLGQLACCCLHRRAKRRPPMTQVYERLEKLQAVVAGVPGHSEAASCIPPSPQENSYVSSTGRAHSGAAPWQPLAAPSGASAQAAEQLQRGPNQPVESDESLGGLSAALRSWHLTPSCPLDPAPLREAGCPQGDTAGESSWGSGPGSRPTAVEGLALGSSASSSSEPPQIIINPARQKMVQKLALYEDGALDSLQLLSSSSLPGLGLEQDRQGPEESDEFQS
T9 sequence (P50613 whole entry): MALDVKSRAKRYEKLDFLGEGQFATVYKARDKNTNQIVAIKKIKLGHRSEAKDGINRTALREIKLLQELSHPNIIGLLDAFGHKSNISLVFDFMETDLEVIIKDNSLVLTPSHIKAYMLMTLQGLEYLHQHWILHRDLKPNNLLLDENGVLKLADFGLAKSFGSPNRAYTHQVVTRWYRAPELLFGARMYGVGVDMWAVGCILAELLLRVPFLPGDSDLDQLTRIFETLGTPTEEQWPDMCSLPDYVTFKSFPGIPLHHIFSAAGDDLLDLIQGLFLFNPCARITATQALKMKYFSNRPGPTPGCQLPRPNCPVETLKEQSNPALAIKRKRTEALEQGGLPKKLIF
T9 sequence (P51946 whole entry partner): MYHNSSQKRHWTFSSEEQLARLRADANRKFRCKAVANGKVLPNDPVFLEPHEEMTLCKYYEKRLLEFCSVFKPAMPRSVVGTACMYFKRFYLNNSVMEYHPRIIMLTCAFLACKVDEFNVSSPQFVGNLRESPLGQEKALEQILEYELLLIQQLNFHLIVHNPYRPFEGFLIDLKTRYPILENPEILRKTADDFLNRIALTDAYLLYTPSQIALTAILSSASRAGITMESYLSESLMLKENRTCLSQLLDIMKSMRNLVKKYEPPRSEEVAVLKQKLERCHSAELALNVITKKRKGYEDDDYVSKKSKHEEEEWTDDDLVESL
T9 sequence (P51948 whole entry partner): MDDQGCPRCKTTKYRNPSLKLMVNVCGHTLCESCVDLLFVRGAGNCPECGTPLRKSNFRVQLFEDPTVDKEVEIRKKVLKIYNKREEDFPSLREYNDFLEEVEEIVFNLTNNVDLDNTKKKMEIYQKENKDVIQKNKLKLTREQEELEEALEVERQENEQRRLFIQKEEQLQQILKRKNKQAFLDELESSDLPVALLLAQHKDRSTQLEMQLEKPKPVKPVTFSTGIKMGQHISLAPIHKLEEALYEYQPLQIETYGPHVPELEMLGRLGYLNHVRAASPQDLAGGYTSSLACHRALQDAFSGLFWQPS
T2 sequence (O75116 whole entry): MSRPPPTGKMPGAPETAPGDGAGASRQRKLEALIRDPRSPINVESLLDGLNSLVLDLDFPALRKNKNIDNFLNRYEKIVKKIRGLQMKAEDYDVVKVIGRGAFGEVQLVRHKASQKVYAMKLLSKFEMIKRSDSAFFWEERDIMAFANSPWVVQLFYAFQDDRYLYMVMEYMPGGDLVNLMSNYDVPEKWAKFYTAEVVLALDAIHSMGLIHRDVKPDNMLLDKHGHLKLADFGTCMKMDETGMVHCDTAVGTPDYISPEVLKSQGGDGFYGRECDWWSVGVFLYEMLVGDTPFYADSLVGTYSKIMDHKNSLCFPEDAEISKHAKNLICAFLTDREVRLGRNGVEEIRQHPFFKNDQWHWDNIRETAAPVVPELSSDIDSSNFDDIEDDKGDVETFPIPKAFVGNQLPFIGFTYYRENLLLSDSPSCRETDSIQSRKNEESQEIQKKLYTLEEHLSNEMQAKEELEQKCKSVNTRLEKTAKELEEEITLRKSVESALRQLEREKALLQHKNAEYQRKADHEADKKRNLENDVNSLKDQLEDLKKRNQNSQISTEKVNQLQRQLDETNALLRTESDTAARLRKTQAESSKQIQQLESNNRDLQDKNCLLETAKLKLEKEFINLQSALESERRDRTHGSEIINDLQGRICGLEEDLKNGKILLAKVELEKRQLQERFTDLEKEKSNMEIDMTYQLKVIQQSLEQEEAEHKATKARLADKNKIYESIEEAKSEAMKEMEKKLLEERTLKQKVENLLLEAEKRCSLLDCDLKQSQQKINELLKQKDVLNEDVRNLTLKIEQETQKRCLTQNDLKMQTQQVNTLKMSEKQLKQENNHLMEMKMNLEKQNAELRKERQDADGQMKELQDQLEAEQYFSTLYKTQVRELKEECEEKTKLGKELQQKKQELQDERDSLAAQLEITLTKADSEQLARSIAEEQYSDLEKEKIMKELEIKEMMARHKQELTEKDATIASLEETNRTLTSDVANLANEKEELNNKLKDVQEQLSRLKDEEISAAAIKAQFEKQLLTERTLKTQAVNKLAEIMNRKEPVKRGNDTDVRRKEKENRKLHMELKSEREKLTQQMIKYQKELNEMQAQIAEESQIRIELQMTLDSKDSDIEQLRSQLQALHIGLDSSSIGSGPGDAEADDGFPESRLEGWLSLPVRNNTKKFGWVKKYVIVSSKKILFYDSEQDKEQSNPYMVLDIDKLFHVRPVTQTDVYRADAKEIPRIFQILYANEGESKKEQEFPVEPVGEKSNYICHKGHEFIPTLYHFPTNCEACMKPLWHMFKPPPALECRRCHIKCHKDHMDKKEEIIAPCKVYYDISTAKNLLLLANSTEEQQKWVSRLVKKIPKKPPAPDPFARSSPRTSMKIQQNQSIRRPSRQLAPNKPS
T8 sequence (P00519 whole entry): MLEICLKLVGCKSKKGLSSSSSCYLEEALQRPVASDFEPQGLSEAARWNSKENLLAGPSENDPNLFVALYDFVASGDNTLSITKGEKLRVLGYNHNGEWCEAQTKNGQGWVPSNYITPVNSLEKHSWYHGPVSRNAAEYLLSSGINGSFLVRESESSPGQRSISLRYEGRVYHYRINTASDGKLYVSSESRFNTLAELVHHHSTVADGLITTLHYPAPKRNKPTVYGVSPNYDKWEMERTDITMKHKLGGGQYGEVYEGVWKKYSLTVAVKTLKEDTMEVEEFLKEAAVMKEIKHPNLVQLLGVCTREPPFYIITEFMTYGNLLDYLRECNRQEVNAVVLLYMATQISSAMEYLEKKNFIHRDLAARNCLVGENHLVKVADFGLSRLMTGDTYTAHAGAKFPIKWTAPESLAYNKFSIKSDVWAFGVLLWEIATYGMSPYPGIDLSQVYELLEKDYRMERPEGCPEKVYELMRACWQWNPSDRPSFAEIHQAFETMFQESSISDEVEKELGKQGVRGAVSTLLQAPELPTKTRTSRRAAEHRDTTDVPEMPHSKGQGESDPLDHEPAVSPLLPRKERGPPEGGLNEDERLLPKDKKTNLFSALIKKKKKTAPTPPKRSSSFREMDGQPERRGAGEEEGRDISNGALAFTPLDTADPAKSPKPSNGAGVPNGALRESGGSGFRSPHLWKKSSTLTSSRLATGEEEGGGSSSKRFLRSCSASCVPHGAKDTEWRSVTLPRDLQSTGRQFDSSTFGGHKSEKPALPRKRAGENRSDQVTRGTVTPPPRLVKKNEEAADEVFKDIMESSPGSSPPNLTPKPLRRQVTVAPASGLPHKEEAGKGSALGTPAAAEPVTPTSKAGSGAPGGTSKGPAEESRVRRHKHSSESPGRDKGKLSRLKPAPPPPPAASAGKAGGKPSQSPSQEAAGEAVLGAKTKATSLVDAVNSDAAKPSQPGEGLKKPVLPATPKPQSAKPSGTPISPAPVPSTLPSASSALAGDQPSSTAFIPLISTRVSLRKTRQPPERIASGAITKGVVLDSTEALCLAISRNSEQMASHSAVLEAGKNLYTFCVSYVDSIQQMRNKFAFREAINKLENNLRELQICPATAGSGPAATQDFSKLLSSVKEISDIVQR

For the molecule `O=C(Nc1ccc(F)c(Nc2ccc3c(c2)CCCCC3=O)c1)c1cccc(F)c1` [Compound 109], the Residual activity at IKKbeta (1.0E-05 M) is listed as 79 % of control; at IKKbeta (1.0E-06 M), 84 % of control; on ROCK2 (1.0E-05 M) it was 98 % of control; on ROCK2 (1.0E-06 M), 103 % of control; at TTBK2 (1.0E-05 M), 113 % of control; on TTBK2 (1.0E-06 M), 105 % of control. Also, the Residual activity is 104 % of control at IRAK1 (1.0E-05 M); 100 % of control on IRAK1 (1.0E-06 M); 97 % of control at SRMS (1.0E-05 M); 98 % of control on SRMS (1.0E-06 M); 83 % of control at MUSK (1.0E-05 M); 97 % of control at MUSK (1.0E-06 M). Also, the Residual activity on IRAK4 (1.0E-05 M) was 93 % of control; at IRAK4 (1.0E-06 M) it was 92 % of control; on ABL1 (1.0E-05 M) it was 91 % of control; on ABL1 (1.0E-06 M), 91 % of control; on CDK7/CycH/MAT1 (1.0E-05 M) it was 92 % of control; at CDK7/CycH/MAT1 (1.0E-06 M) it was 89 % of control.

Consider `O=C(Cc1ccccc1)Nc1ccc(F)c(Nc2ccc3c(c2)CCCCC3=O)c1` [Compound 100], for which the Residual activity at IKKbeta (1.0E-05 M) is given as 99 % of control; on IKKbeta (1.0E-06 M), 110 % of control; at ROCK2 (1.0E-05 M), 102 % of control; on ROCK2 (1.0E-06 M), 101 % of control; at TTBK2 (1.0E-05 M), 126 % of control; on TTBK2 (1.0E-06 M), 109 % of control. The Residual activity is 106 % of control on IRAK1 (1.0E-05 M); 107 % of control on IRAK1 (1.0E-06 M); 93 % of control at SRMS (1.0E-05 M); 102 % of control on SRMS (1.0E-06 M); 93 % of control at MUSK (1.0E-05 M); 98 % of control at MUSK (1.0E-06 M). In addition, the Residual activity is 100 % of control at IRAK4 (1.0E-05 M); 97 % of control on IRAK4 (1.0E-06 M); 88 % of control at ABL1 (1.0E-05 M); 90 % of control on ABL1 (1.0E-06 M); 83 % of control at CDK7/CycH/MAT1 (1.0E-05 M); 94 % of control at CDK7/CycH/MAT1 (1.0E-06 M).
